Entries after “also recorded” stand apart in the source; their conditions may differ.
Experiments:
neuronal cells = experiment: Intracellular calcium level [Ca2+]i in primary neurons (Fura-2 fluorescence ratio 340/380 nm); format: cell-based, rat; settings: 200 μM stimulant and 2.5 mM Ca2+, without sorbicillactone A
Source text: Material: The same materials as described in Perovic et al. (1998, Mech. Ageing Dev. 101:1-19) were used. Fura-2-acetoxymethylester (Fura-2-AM) was obtained from Molecular Probes (Leiden, The Netherlands), Dulbecco's modified Eagle's Medium with 4.5 g/L glucose (DMEM/HG), L-glutamic acid (L-Glu), and serotonin (5-HT) from Sigma-Aldrich (Taufkirchen, Germany) and the antibodies mouse-anti-neurofilament (68 kDa) and mouse-anti-glial-fibrillary-acidic-protein (GFAP) from Roche Diagnostics (Mannheim, Germany). Sorbicillactone A of the batch: 2208/2a was used.
Primary neurons: The cortical cell culture was produced from the brains of 17-18 day-old rat embryos, according to a modified procedure [Freshney (1987) Culture of specific cell types. In: Culture of Animal Cells. A Manual of Basic Technique, A. R. Liss, New York, S. 257-288; Perovic et al. (1994) Eur. J. Pharmacol. (Mol. Pharmacol. Sec.) 288:27-33]. After the isolation, the cerebral-hemispheres were put into Hank's Balanced Salt Solution (HBSS) without Ca^2+ and Mg^2+, and the neuronal cells were subsequently dissociated in HBSS using 0.025% (w/v) trypsin (10 min.; 37° C.). The proteolytic reaction was stopped with 10% (v/v) foetal calf serum (FCS). The single-cell suspensions were centrifuged, and the resulting pellet was taken up into Dulbecco's modified Eagles's Medium with 4.5 g/L glucose (DMEM/HG) (contains 2 mM L-glutamine, 100 mU/L insulin, and 10% (v/v) FCS). The cells were plated in a chamber with poly-L-lysine (5 μg/mL, 300 μl/cm^2) in a cell density of 2.0×10^5 cells/cm^2. After two days the DMEM/HG/10%-FCS-medium was removed and replaced with DMEM/HG/serum-free medium. Two weeks after the isolation, the immune staining took place with anti-neurofilament (68 kDa) as a marker for neurons, and anti-GFAP as a marker for glial cells. The cultures contained >80% neurons; the residual 20% were GFAP-positive cells, mainly astrocytes (Ushijima et al. (1995) Eur. J. Neurosci. 7:1353-9). The neurons were held in an atmosphere of 95% air and 5% CO2 at 37° C.
Loading of neurons with Fura-2-AM: The intracellular Ca^2+-concentration ([Ca^2+]i) was determined by fluorescence measurements. The ratio of the absorption of the Ca^2+-indicator dye Fura-2-AM at 340 and 380 nm (Grynkiewicz et al. (1985) J. Biol. Chem. 260:3440-50) was decisive. The neurons were loaded with 6 μM Fura-2-AM in DMEM/HG/serum-free medium (supplemented with 1% (w/v) bovine serum albumin) at 37° C. for 60 min. After incubation, the cells were washed two times with medium, and further incubated for 45 min at 37° C.
Calcium-calibration curve: A calcium-calibration curve was produced according to the methods of Grynkiewicz et al. (1985, J. Biol. Chem. 260:3440-50). Fluorescence pictures were obtained for each buffer at 340 and 380 nm. The quotient from both fluorescence spectra (340/380 nm) was calculated, and depicted as a calibration curve. The quotient (340/380 nm [ratio-value]) of 1.0 corresponds to 228 nM [Ca^2+]i.
Changes of the calcium level in neurons: In all experimental settings, the cells were first loaded with Fura-2-AM, and subsequently stimulated with different substances (in Locke's solution; 154 mM NaCl; 5.6 mM KCl; 3.6 mM NaHCO3; 5.6 mM glucose, and 10 mM Hepes; pH 7.4; without CaCl2). Sorbicillactone A was dissolved in a concentration of 10 mg/mL in 100% (v/v) DMSO, and stored at −20° C. In the first setting, the neurons were stimulated for 5 min with 0.1% (v/v) DMSO (control); after 10 min 200 μM L-glutamic acid (L-Glu), 200 μM serotonin (5-HT), and 2.5 mM CaCl2 were added to the cells. In a second setting, the effect of L-Glu, 5-HT, and 2.5 mM CaCl2 on the calcium level of pre-incubated neurons (each 5 min with 10 μg/mL sorbicillactone A) was tested. In all experiments, the [Ca^2+]i-level was measured for at least 20-25 min. […]

[1] = Relative activity compared with sorbicillactone A (test not specified)
[2] = test system: L5178Y-mouse lymphoma cells (ATCC CRL 1722); experiment: Apoptosis detection (Cell Death Detection ELISA plus); format: cell-based; settings: for MW ± SD (OD) / % of the control (negative): 4 hours incubation; for MW ± SD (OD): 405 nm; for % of the control (negative): negative control = 100%
Method: Material: RPMI1640-medium, Hepes buffered, was obtained from Sigma-Aldrich (Taufkirchen, Germany), foetal calf serum (FCS) from Gibco (Karlsruhe, Germany), and Cell Death Detection ELISA plus from Roche (Mannheim, Germany, Cat. No. 1774425). Sorbicillactone A of the batch: 2208/2a was used.
Incubation and preparation of the cells: The L5178Y-mouse lymphoma cells (ATCC CRL 1722)) were counted, and adjusted to a number of cells of 10^4 cells/mL. The sorbicillactone-A- and dihydrosorbicillactone-A-stock solution (10 mg/mL in DMSO) was diluted with medium (RPMI/Hepes with 10% FCS) to concentrations of 60, 20, and 6 μg/mL. In a 96-well-culture plate, 100 μl cell suspension (˜10^3 cells) were each pipetted to each of the 100 μl of the different dihydrosorbicillactone-A- and sorbicillactone-A-solutions. RPMI1640-medium without dihydrosorbicillactone and sorbicillactone A was used as a negative control. The final concentrations were 30, 10, and 3 μg/mL sorbicillactone A and dihydrosorbicillactone A. Four parallel settings of each sample were analysed. The cells were incubated for 4 hours at 37° C. After the incubation, the culture plate was centrifuged at […] (˜1200 rpm) for 10 min at room temperature. The supernatant was carefully pipetted off, and the cells were each overlayered with 200 μl lysis-buffer (Roche-Kit). Then, the cells were lysed for 30 min at room temperature. After the lysis, the culture plate was again centrifuged at 200×g (˜1200 rpm) for 10 min at room temperature.
ELISA: Two strips with eight wells each were taken from the streptavidin-ELISA-plate of the Roche-kit. 20 μl of the supernatant of a cell-lysis (see above) were added into each well. In doing so, the samples with 30 or 10 μg/mL of sorbicillactone A and dihydrosorbicillactone A were loaded as 4-fold, and all other as duplicate determinations. In addition to these sample, a positive control (DNA-histone-complex) was loaded. Then, 80 μl of immune reagent were added into each well. This solution consisted of incubation buffer, anti-histone-biotin, and anti-DNA-peroxidase. The incubation buffer was used as a blank value. The ELISA-plate was incubated for 2 hours in a shaking incubator at room temperature. Them the supernatants were carefully removed, and the wells were each washed 3× with 250 μl of the incubation buffer. After the washing, 100 μl of ABTS-solution were added into each “well”. Subsequently, the cells were incubated for 30 min in the dark at room temperature. The measurement took place in a multiscan at an emission wavelength of 405 nm.

| SMILES | increase of the 340-/380-nm-values (neuronal cells) | increase of the 340-/380-nm-values, control assumed to be 100% (neuronal cells) | activity relative to sorbicillactone A [1] | MW ± SD (OD) ([2]; 3 μg/mL) | % of the control (negative) ([2]; 3 μg/mL) | MW ± SD (OD) ([2]; 10 μg/mL) | % of the control (negative) ([2]; 10 μg/mL) | MW ± SD (OD) ([2]; 30 μg/mL) | % of the control (negative) ([2]; 30 μg/mL) | induction of apoptosis ([2]; 3, 10, and 30 μg/mL, 4 hours of incubation) |
| --- | --- | --- | --- | --- | --- | --- | --- | --- | --- | --- |
| N[C@@H](CCC(=O)O)C(=O)O [L-glutamic acid] | 1.715±0.081 | 307.1% |  |  |  |  |  |  |  |  |
| NCCc1c[nH]c2ccc(O)cc12 [Serotonin, serotonin] | 0.971±0.112 | 219.9% |  |  |  |  |  |  |  |  |
| C/C=C/CC/C(O)=C1/C(=O)C(C)=C(O)[C@@]2(C)OC(=O)[C@@](C)(NC(=O)/C=C/C(=O)O)[C@@H]12 [dihydrosorbicillactone A] |  |  | five-fold less active | 0.016 ± 0.003 OD | 76.2% | 0.013 ± 0.002 OD | 61.9% | 0.016 ± 0.004 OD | 76.2% | did not result in an induction of apoptosis; also recorded: did not induce apoptosis |
